Laboratory results: patent US20220346377A1, “NOVEL COMPOSITIONS” (DSM IP ASSETS B.V., priority 2019, published 2022)

Experiments:
Type in all cases: cell-based
Candida albicans = assay: Antimicrobial efficacy in analogy to challenge test (NF EN ISO11930), Candida albicans
Description: The antimicrobial efficacy was assessed in analogy to the regulatory challenge test method (NF EN ISO11930). Thus, mixtures of the respective active(s) with physiological serum with 0.85 wt.-% NaCl in the concentrations as outlined below are prepared under sterile conditions. Controls were also prepared under sterile conditions. The control as well as the mixtures were then deposed in 96-deep well plates (1.6 ml/well). […] After the contamination, each well was thoroughly mixed to ensure a homogeneous distribution of microbes. Then each plate was incubated at 22° C. for 24 h. The counting of the (remaining) population is carried out 24 h after contamination. Then, the average log reduction is calculated [−log 10{(value inoculum)/(value sample)}] which is represented in tables 1-5.

Staphylococcus aureus = assay: Antimicrobial efficacy in analogy to challenge test (NF EN ISO11930), Staphylococcus aureus
Description: (§1) The antimicrobial efficacy was assessed in analogy to the regulatory challenge test method (NF EN ISO11930). Thus, mixtures of the respective active(s) with physiological serum with 0.85 wt.-% NaCl in the concentrations as outlined below are prepared under sterile conditions. Controls were also prepared under sterile conditions. The control as well as the mixtures were then deposed in 96-deep well plates (1.6 ml/well). The wells were contaminated with the respective bacterial or the fungal strains at 2.5*10^5 to 5.6*10^5 cfu/ml for the bacteria and 1*10^4 to 2.5*10^4 cfu/ml for the fungi to obtain the initial contamination as outlined below. After the contamination, each well was thoroughly mixed to ensure a homogeneous distribution of microbes. Then each plate was incubated at 22° C. for 24 h. The counting of the (remaining) population is carried out 24 h after contamination. Then, the average log reduction is calculated [−log 10{(value inoculum)/(value sample)}] which is represented in tables 1-5.

Aspergillus brasiliensis = assay: Antimicrobial efficacy in analogy to challenge test (NF EN ISO11930), Aspergillus brasiliensis; conditions: 0.3 wt.-% DBO
Description: as §1

Escherichia coli = assay: Antimicrobial efficacy in analogy to challenge test (NF EN ISO11930), Escherichia coli; conditions: 0.2 wt.-% Sodium Benzoate
Description: as §1

OCCCO [PDO, 1,3-propanediol]
Log reduction (Candida albicans; 1.0 wt.-% PDO, 24 h): −0.24 | colony count 24 h (Candida albicans; 1.0 wt.-% PDO, inoculum 70000 cfu/ml, 24 h): 40000 cfu/ml

CC(=O)c1ccc(O)cc1 [HAP, p-Hydroxyacetophenone]
colony count 24 h (Staphylococcus aureus; 0.3 wt.-% HAP, inoculum 550000 cfu/ml, 24 h): 70000 cfu/ml

c1ccc2oc(-c3ccc(-c4nc5ccccc5o4)cc3)nc2c1 [DBO, 1,4-di(benzoxazol-2′-yl)benzene]
Log reduction (Candida albicans; 0.3 wt.-% DBO, 24 h after contamination): −0.51 | colony count 24 h (Candida albicans; 0.3 wt.-% DBO, inoculum 32000 cfu/ml, 22° C., 24 h, physiological serum 0.85 wt.-% NaCl): 10000 cfu/ml | synergistic effect on antimicrobial activity (Staphylococcus aureus; DBO with p-Hydroxyacetophenone, conclusion from Table 3): synergistically enhances the antimicrobial activity of p-Hydroxyacetophenone | Log reduction (Aspergillus brasiliensis; 24 h after contamination): −2.05 | colony count 24 h (Aspergillus brasiliensis; inoculum 45000 cfu/ml, 22° C., 24 h): 400 cfu/ml

O=C([O-])c1ccccc1.[Na+] [Sodium Benzoate, sodium benzoate]
colony count 24 h (Escherichia coli; inoculum 400000 cfu/ml): 1000000 cfu/ml | Log reduction (Escherichia coli; 24 h): +0.40
